US20140377201A1, “SKIN-WHITENING COMPOSITION CONTAINING EXTRACTS FROM TREES INCLUDING PAPER MULBERRY” (Amorepacific Corporation, priority 2010, published 2014)

Tests used:
[1] = test system: tyrosinase (SIGMA) extracted from mushrooms; experiment: Tyrosinase inhibitory effect; assay type: biochemical; details: positive control, 40 μg/ml of kojic acid; substrate tyrosine; 37° C.; absorbance at 475 nm
Protocol: The enzyme tyrosinase used in this Test Example was a tyrosinase (SIGMA) extracted from mushrooms. First, the substrate tyrosine was dissolved in distilled water at a concentration of 0.3 mg/ml, and 1.0 ml of the solution was placed in each test tube. Then, 1.0 ml of potassium-phosphate buffer (0.1 M, pH 6.8) and 0.7 ml of distilled water were added thereto, thereby preparing a mixed solution. […] Then, the test tube containing the reaction solution was quenched in ice water to stop the reaction, and the absorbance at 475 nm was measured with a photoelectric spectrophotometer. Then, the tyrosinase inhibitory activity of each of the extracts was calculated using the following equation 1, and the results of the calculation are shown in Table 1 below. Tyrosinase inhibition (%)=100−(absorbance of each extract/absorbance of control×100 [Equation 1]

[2] = test system: B16/F10 melanoma cells; experiment: Melanin production inhibitory activity using B16/F10 melanoma cells; assay type: cell-based; details: 50 μg/ml of arbutin; incubated for 3 days; absorbance at 405 nm
Protocol: Samples, containing 0.001 wt % of each of the extracts of Examples 1 to 9 and Comparative Examples 1 to 3, and 50 /μg/ml of arbutin, were used as test materials. Each of the test materials was added to a culture of B16/F10 melanoma cells (Korean Cell Line Bank) at a given concentration and incubated for 3 days. The medium as removed, and the cells were washed with PBS and lysed with 1N NaOH, and the absorbance at 405 nm was measured. As a control, cells to which no test material was added were used. The skin whitening effects of the test materials were measured by measuring the melanin production inhibitory activity of each test material in comparison with the content of melanin in the control. Melanin production inhibition (%) was calculated using the following equation 2, and the calculation results are shown in Table 2 below.
Melanin production inhibition (%)=100−(absorbance of each test material/absorbance of control)×100 [Equation 2]

Tyrosinase inhibition (%) [1] [%]	SMILES	Melanin production inhibition (%) [2] [%]
51	O=c1cc(CO)occ1O [Kojic acid, kojic acid]	–
–	OC[C@H]1O[C@@H](Oc2ccc(O)cc2)[C@H](O)[C@@H](O)[C@@H]1O [Arbutin, arbutin]	48
